The text below walks through data of BindingDB's records for patent US20240246984 (Beijing Innocare Pharma Tech, 2024).

The target of assay [1] is Tyrosine-protein kinase JAK2 (Homo sapiens, UniProt O60674). The assay can be described thus: JAK2 Activity Inhibition Assay. As for the experimental part: The enzymatic activity of JAK2 was assessed by detecting the substrate phosphorylation level in a kinase reaction with a homogeneous time-resolved fluorescence (HTRF) kinase detection kit (Cisbio, 62TK0PEC). A reaction buffer contained an enzyme buffer (1×), 5 mM MgCl2, 1 mM DTT and 0.01% Brij35 from the kit; a human recombinant JAK2 protein (Carna Biosciences, 08-045) was diluted to a kinase reaction solution of 0.15 ng/μL with the reaction buffer; a substrate reaction solution contained 2.5 μM ATP and a biotin-labeled tyrosine kinase substrate diluted to 0.25 μM with the reaction buffer; a detection buffer contained 0.1 ng/μL Eu3+ labeled cage antibody (Cisbio, 61T66KLB) and 12.5 nM streptavidin-labeled XL665 (Cisbio, 610SAXLB) in the reaction buffer; the compound was dissolved to 10 μM in DMSO, followed by a serial 4-fold dilution with DMSO to a minimum concentration of 0.061 nM. Each concentration was further diluted 40-fold with the reaction buffer. To a 384-well assay plate (Corning, 3674) were added 4 μL of the compound solutions having a series of concentrations and 2 μL of JAK2 kinase reaction solutions. […] An Envision plate reader (Perkin Elmer) was then used to measure the progress of the reaction at wavelengths of 620 nm and 665 nm.

Assay [2] deals with Non-receptor tyrosine-protein kinase TYK2 (Homo sapiens, UniProt P29597). The assay can be described thus: TYK2 Activity Inhibition Assay. As for the experimental part:
The enzymatic activity of TYK2 was assessed by detecting the substrate phosphorylation level in a kinase reaction with a homogeneous time-resolved fluorescence (HTRF) kinase detection kit (Cisbio, 62TK0PEC). A reaction buffer contained an enzyme buffer (1×), 5 mM MgCl2, 1 mM DTT and 0.01% Brij35 from the kit; a human recombinant TYK2 protein (Carna Biosciences, 08-147) was diluted to a kinase reaction solution of 0.25 ng/μL with the reaction buffer; a substrate reaction solution contained 11.25 μM ATP and a biotin-labeled tyrosine kinase substrate diluted to 0.5 μM with the reaction buffer; a detection buffer contained 0.1 ng/μL Eu3+ labeled cage antibody (Cisbio, 61T66KLB) and 25 nM streptavidin-labeled XL665 (Cisbio, 610SAXLB) in the reaction buffer; the compound was dissolved to 10 μM in DMSO, followed by a serial 4-fold dilution with DMSO to a minimum concentration of 0.061 nM. Each concentration was further diluted 40-fold with the reaction buffer. To a 384-well assay plate (Corning, 3674) were added 4 μL of the compound solutions having a series of concentrations and 2 μL of kinase reaction solutions. After being mixed evenly, the mixtures were incubated at room temperature for 15 minutes, and then 4 μL of the substrate reaction solutions were added.

SMILES strings stand for the structures.

Sequence of Tyrosine-protein kinase JAK2 (O60674 whole entry): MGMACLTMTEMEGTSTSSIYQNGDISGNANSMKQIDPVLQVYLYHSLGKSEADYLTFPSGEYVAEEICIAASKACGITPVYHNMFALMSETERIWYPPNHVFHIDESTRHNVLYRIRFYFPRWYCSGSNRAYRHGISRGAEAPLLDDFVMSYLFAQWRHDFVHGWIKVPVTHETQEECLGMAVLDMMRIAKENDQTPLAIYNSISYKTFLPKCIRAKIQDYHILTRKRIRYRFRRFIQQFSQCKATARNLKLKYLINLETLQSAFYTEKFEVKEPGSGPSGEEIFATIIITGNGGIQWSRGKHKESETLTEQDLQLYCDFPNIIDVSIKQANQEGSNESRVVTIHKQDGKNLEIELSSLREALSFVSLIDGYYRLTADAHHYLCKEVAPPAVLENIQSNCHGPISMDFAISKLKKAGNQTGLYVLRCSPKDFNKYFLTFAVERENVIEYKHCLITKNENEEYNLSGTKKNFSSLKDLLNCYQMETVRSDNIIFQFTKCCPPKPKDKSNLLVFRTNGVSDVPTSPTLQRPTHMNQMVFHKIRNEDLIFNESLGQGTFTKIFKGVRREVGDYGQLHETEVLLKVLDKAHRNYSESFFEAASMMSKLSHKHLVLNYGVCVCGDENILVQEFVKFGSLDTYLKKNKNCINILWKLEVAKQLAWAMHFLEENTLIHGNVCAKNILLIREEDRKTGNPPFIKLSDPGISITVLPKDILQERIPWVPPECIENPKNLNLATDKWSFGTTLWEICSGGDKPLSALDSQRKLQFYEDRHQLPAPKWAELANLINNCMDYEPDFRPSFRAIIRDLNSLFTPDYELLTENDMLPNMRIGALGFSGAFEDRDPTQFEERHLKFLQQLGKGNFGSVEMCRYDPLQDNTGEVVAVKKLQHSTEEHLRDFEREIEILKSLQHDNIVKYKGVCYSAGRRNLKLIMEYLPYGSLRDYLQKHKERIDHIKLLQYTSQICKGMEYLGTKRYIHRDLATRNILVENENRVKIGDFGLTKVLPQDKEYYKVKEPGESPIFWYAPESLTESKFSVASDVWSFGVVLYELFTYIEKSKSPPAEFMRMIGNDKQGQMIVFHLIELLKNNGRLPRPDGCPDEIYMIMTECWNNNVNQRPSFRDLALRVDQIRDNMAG
Sequence of Non-receptor tyrosine-protein kinase TYK2 (P29597 whole entry): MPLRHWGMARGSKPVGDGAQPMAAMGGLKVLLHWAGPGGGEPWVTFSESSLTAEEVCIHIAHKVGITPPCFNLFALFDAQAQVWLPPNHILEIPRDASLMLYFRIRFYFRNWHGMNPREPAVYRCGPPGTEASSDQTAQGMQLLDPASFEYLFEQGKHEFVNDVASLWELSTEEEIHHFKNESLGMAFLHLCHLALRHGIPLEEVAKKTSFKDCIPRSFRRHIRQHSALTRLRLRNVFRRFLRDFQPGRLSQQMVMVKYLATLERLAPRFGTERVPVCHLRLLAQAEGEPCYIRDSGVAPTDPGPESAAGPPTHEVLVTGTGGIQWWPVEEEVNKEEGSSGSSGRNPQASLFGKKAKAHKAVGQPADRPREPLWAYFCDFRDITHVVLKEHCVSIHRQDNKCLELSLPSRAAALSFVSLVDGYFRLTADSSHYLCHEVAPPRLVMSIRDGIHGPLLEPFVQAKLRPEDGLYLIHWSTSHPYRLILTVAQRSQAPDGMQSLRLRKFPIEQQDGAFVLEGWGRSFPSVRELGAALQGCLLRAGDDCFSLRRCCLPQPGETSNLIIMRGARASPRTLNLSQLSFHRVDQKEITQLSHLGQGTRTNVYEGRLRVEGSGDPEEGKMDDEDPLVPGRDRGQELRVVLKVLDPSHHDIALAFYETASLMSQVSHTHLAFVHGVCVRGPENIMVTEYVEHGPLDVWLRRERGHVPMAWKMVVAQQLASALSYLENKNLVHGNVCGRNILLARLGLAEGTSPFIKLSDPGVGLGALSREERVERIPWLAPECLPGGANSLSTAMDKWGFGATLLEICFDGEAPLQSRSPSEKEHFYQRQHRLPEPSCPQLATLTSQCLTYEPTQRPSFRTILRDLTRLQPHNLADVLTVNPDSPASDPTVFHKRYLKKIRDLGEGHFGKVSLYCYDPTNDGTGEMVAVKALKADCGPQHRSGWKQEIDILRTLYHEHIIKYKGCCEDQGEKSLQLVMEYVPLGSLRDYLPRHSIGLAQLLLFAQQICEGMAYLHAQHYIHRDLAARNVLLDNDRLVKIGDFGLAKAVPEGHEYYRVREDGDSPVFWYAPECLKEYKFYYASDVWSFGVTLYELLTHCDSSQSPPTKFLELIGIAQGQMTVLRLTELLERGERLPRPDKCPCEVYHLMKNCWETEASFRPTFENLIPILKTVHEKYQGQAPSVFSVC

As to `O=C1NCCn2c(-c3c(F)cccc3F)nc(Nc3ccc(C(=O)N4CCOCC4)cc3)c21` [US20240246984, Compound 2.], the IC50 worked out at 1.9 nM in assay [1] and 0.2 nM in assay [2].
